Assay results as given in patent US20050239804A1, “Method for improved chemical synthesis of guanidinium alkaloids” (The Regents of the University of California, priority 1999, published 2005).

What was measured:
[1] = system: L1210; details: cited from earlier work
[2] = system: 60 tumor cell lines; assay: NCI DTP Human Tumor Cell Line Screen (60 tumor cell lines, Sulforhodamine B assay); format: cell-based; details: 48 h exposure, five 10-fold dilutions
From the text: This example describes the in vitro screening of 60 tumor cell lines against the compounds of the invention: ptilomycalin A, isocrambescidin 800 trihydrochloride, triacetylcrambescidin 800 chloride, crambescidin 657 hydrochloride, crambescidin 800 trihydrochloride, triacetylisocrambescidin 800 chloride, and 13-epiptilomycalin A to determine anti-tumor activity.
The screening methods utilized the National Cancer Institute (NCI) DTP Human Tumor Cell Line Screen protocol as described by Monks et al., J. Nat'l. Cancer Inst. 83:757-766 (1991); and Boyd In “Cancer Drug Discovery and Development, Vol; 2; Drug Development; Preclinical Screening, Clinical Trial and Approval, Humana Press, 1997, pp 23-43. The origins and processing of the cell lines used are described in Alley et al., Cancer Res., 1988, 48:589-601; Shoemaker et al., Prog. Clin. Biol. Res., 1988, 276:265-286; and Stinson et al., Proc. Am. Assoc. Cancer Res., 1989, 30:613.
In brief, in the screen protocol, cell suspensions were diluted depending on cell type and the expected target cell density (approximately 5000-40,000 cells per well) into a 96 well microtiter plate. Inoculates were preincubated for 24h at 37 °C for stabilization. Dilutions at twice the intended test concentrations were added at time zero in 100 μL aliquots to the microtiter plate wells. Test compounds were evaluated at five 10-fold dilutions. Routine test concentrations have the highest well concentration at 10E-4M, but for the standard agents, the highest well concentration used depended on the agent used. Incubations lasted 48 hours in 5% CO2 atmosphere and 100% humidity. The cells were assayed by Sulforhodomine B assay as described by Rubenstein et al., JNCI, 1990, 82:1113-1118 and Skehan et al., JNCI, 1990, 82: 1107-1112. Optical densities were read with a plate reader and the data processed using a microcomputer into special concentration parameters.
NCI renamed the IC50 value, the concentration that causes 50% growth inhibition the “GI50” value to emphasize the correction for the cell count at time zero; thus GI50 is the concentration of test drug where 100×(T−T0)/(C−T0)=50 (Boyd et al., In Cytotoxic Anticancer Drugs: Models and Concepts for Drug Discovery and Development, Vieriote. et al., Eds., Kluwer Academic, Hingham, Mass., 1992, pp 11-34; and Monks et al., JNCI, 1991, 83, 757-766. The optical density of the test well after a 48 hr period of exposure to the test compound is “T”, the optical density at time zero is TO and the control optical density is “C.” The “50” is called the GI50PRCNT, a T/C-like parameter that can have values from +100 to −100. The GI50 also measures the growth inhibitory power of the test compound. The TGI is the concentration of test drug where 100×(T−T0)/(C−T0)=0. Thus, the TGI signifies a cytostatic effect. The LC50 which signifies a cytotoxic effect, is the concentration of the test compound where 100×(T−T0)/T0=−50. The control optical density is not used in the calculation of LC50.
These concentration parameters are interpolated values. The concentrations giving G150PRCNT values above and below the reference values (e.g. 50 for G150) are used to make interpolations on the concentration axis. […] For mean graph purposes, the value assumed for the G150 in such a case is the highest concentration tested (HICONC). […] In this case, the lowest concentration tested is used for the G150. Corresponding approximations are made for the TGI and for the LC50.
The results of the tumor cell screening are shown in the mean graphs of 56-62. […]

[3] = system: Candida albicans; details: cited from earlier work
[4] = system: Herpes simplex virus, type 1 (HSV-1); details: at a concentration of 0.2 μg/mL; cited from earlier work
[5] = molecular target: brain Na+, K+-ATPase; details: read-out: inhibition of brain Na+, K+-ATPase (IC50); cited from earlier work
[6] = system: P388; details: cited from earlier work
[7] = molecular target: T1, Ca2+-ATPase from skeletal sarcoplasmic reticulum (Homo sapiens, UniProt O14983); details: read-out: inhibition of Ca2+-ATPase from skeletal sarcoplasmic reticulum (IC50); cited from earlier work
T1 construct: from tissue; host or cells: skeletal muscle sarcoplasmic reticulum
T1 sequence (O14983 whole entry): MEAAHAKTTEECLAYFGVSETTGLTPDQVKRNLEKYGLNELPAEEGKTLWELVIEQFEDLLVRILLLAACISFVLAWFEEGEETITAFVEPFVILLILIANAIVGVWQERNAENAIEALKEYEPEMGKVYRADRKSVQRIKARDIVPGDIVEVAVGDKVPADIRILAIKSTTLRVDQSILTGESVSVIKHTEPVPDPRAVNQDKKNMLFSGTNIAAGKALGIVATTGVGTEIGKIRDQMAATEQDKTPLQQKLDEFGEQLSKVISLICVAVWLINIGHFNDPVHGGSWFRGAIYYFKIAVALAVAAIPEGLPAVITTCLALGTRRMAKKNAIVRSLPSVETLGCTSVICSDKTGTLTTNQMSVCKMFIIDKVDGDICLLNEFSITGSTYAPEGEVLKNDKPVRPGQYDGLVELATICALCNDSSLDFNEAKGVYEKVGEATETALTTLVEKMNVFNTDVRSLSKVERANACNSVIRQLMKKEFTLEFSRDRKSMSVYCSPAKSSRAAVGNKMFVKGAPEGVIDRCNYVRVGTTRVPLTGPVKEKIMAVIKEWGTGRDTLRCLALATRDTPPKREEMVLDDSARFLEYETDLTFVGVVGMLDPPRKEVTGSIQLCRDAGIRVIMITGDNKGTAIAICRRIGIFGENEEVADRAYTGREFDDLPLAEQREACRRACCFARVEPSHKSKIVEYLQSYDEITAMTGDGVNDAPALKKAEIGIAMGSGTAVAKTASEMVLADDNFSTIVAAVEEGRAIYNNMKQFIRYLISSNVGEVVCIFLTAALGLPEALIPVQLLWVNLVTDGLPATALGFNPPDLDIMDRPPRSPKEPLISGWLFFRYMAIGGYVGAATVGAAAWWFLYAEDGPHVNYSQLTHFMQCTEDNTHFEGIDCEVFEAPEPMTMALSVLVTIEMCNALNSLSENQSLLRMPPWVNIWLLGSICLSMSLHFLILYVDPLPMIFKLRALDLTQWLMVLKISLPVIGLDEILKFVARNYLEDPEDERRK

Compound | effect on tumor cell lines in the NCI screen (mean graphs of GI50, TGI, LC50; summary in words) [2] | further results
13,14,15-Isocrambescidin 800 Trihydrochloride | lesser effect | cytotoxicity to L-1210 cells relative to other crambescidins ([1]; L-1210 cells, in words): less cytotoxic to L-1210 cells than other crambescidins
13-epiptilomycalin A | certain cancer cell lines are sensitive | 
CCC1C=CCCC2(CC3CCC4C(C(=O)OCCCCCCCCCCCCCCCC(=O)N(CCCN)CCCCN)C5(CCCC(C)O5)NC(=N2)N34)O1 (centres unmarked) [Ptilomycalin A] | certain cancer cell lines are sensitive | cytotoxicity against L1210 (IC50) ([1]; L1210): 0.4 µg/mL; antifungal activity against Candida albicans (MIC) [3]: 0.8 µg/mL; antiviral activity against Herpes simplex virus, type 1 (HSV-1) [4]: considerable antiviral activity; IC50 [5]: 2 µM; cytotoxicity against P388 (IC50) [6]: 0.1 µg/mL; IC50 [7]: 10 µM
CC[C@H]1C=CCC[C@@]2(C[C@@H]3CC[C@@H]4[C@H](C(=O)OCCCCCCCCCCCCCCCC(=O)N(CCCN)C[C@@H](O)CCN)[C@]5(CCC[C@@H](C)O5)NC(=N2)N34)O1.Cl.Cl.Cl [crambescidin 800 trihydrochloride, Crambescidin 800 Trihydrochloride] | certain cancer cell lines are sensitive | 
Peracetyl-13,14,15-Isocrambescidin 800 Hydrochloride [triacetylisocrambescidin 800 chloride] | lesser effect | 
Peracetylcrambescidin 800 [triacetylcrambescidin 800 chloride] | certain cancer cell lines are sensitive | 
crambescidin 657 hydrochloride | certain cancer cell lines are sensitive | 
